Source: ChEMBL document CHEMBL5236643, “Discovery and characterization of orally bioavailable 4-chloro-6-fluoroisophthalamides as covalent PPARG inverse-agonists” (Bioorg Med Chem, 2023)
Values after ≈ are worked out from the molar mass of the structure shown. Active and inactive are the calls of the source. The calls are words filed in the database; no cut-off is given here.

Experiments:
[1] = Antiproliferative activity against human UM-UC-9 assessed as inhibition of cell proliferation measured after 7 days by IncuCyte live-cell imaging assay; details: UM-UC-9, 168 h
[2] = Antiproliferative activity against human UM-UC-9 assessed as inhibition of cell proliferation by measuring maximum efficacy after 7 days by IncuCyte live-cell imaging assay; format: functional; details: UM-UC-9, 168 h, time 7 day
[3] = Microsomal stability in human liver microsomes assessed as intrinsic clearance at 1 uM measured upto 60 mins in presence of NADPH by HPLC-MS/MS analysis; format: ADME, Microsome; details: read-out: CLH (converted)
[4] = Stability in rat hepatocytes assessed as intrinsic clearance at 1 uM incubated for 1 hr by HPLC-MS/MS analysis; format: ADME, cell-based, Hepatocyte; details: read-out: CLH (converted)
[5] = Stability of compound in GSH at pH 7.4 assessed as parent compound remaining at 10 mM and measured after 1 hrs by HPLC-UV analysis; format: physicochemical; details: GSH solution, read-out: Stability
[6] = Stability of compound in GSH at pH 7.4 assessed as parent compound remaining at 10 mM and measured after 2 hrs by HPLC-UV analysis; format: physicochemical; details: GSH solution, read-out: Stability
[7] = Stability of compound in GSH at pH 7.4 assessed as parent compound remaining at 10 mM and measured after 4 hrs by HPLC-UV analysis; format: physicochemical; details: GSH solution, read-out: Stability
[8] = Stability of compound in GSH at pH 7.4 assessed as parent compound remaining at 10 mM and measured after 24 hrs by HPLC-UV analysis; format: physicochemical; details: GSH solution, read-out: Stability
[9] = Stability of compound in cysteine at pH 7.4 assessed as parent compound remaining at 10 mM and measured after 1 hrs by HPLC-UV analysis; format: physicochemical; details: cysteine solution, read-out: Stability
[10] = Stability of compound in cysteine at pH 7.4 assessed as parent compound remaining at 10 mM and measured after 2 hrs by HPLC-UV analysis; format: physicochemical; details: cysteine solution, read-out: Stability
[11] = Stability of compound in cysteine at pH 7.4 assessed as parent compound remaining at 10 mM and measured after 4 hrs by HPLC-UV analysis; format: physicochemical; details: cysteine solution, read-out: Stability
[12] = Stability of compound in cysteine at pH 7.4 assessed as parent compound remaining at 10 mM and measured after 24 hrs by HPLC-UV analysis; format: physicochemical; details: cysteine solution, read-out: Stability
[13] = Apparent permeability across basolateral to apical side in human Caco-2 cells at 2 uM incubated for 2 hrs by LC-MS/MS analysis; format: ADME, cell-based
[14] = Thermodynamic solubility of compound at pH 6.5 PBS buffer; format: physicochemical; details: read-out: Therm_solubility
[15] = molecular target: T1, Nuclear receptor subfamily 1 group I member 2 (Homo sapiens, UniProt O75469); experiment: Transactivation of human PXR in human HepG2 cells co-expressing luciferase gene under control of CYP3A4 promoter assessed as increase in luciferase activity incubated for 24 hrs by luminescence based analysis; format: ADME, cell-based
T1 sequence (O75469 whole entry): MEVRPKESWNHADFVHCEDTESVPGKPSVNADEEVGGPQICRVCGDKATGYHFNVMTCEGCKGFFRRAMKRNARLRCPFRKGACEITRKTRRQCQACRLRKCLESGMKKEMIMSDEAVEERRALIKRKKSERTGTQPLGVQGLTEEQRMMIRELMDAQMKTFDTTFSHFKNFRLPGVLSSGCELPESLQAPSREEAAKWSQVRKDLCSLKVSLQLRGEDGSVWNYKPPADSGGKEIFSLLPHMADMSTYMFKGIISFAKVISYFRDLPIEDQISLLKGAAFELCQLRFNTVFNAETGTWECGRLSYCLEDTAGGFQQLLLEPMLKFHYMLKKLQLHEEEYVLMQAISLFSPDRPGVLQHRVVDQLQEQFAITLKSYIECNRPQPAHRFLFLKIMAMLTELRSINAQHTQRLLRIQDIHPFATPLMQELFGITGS

[16] = AUClast in Wistar rat at 0.3 mg/kg,iv measured upto 24 hrs by HPLC-MS/MS analysis; format: ADME, organism-based; parameters: dose 0.3 mg/kg, time < 24 hrs, route iv; details: in vivo
[17] = Clearance in Wistar rat at 0.3 mg/kg,iv measured upto 24 hrs by HPLC-MS/MS analysis; format: ADME, organism-based; details: in vivo
[18] = Volume of distribution at steady state in Wistar rat at 0.3 mg/kg,iv measured upto 24 hrs by HPLC-MS/MS analysis; format: ADME, organism-based; details: in vivo, read-out: Vdss
[19] = Half life in Wistar rat at 0.3 mg/kg,iv measured upto 24 hrs by HPLC-MS/MS analysis; format: ADME, organism-based; details: in vivo
[20] = AUClast in NMRI-nu/nu mouse at 100 mg/kg,po measured upto 24 hrs by HPLC-MS/MS analysis; format: ADME, organism-based; parameters: time < 24 hrs, dose 100 mg/kg, route po; details: in vivo
[21] = Cmax in NMRI-nu/nu mouse at 100 mg/kg,po measured upto 24 hrs by HPLC-MS/MS analysis; format: ADME, organism-based; parameters: time < 24 hrs, dose 100 mg/kg, route po; details: in vivo
[22] = Tmax in NMRI-nu/nu mouse at 100 mg/kg,po measured upto 24 hrs by HPLC-MS/MS analysis; format: ADME, organism-based; details: in vivo
[23] = molecular target: T2, Peroxisome proliferator-activated receptor gamma (Mus musculus) (UniProt P37238); experiment: Inverse agonist activity at PPARgamma in NMRI-nu/nu mouse assessed as reduction in Fabp4 mRNA expression in adipose tissue at 100 mg/kg for 3 days and measured 6 hrs last dose by qPCR analysis; format: organism-based; details: time 3.0 day
T2 sequence (whole entry): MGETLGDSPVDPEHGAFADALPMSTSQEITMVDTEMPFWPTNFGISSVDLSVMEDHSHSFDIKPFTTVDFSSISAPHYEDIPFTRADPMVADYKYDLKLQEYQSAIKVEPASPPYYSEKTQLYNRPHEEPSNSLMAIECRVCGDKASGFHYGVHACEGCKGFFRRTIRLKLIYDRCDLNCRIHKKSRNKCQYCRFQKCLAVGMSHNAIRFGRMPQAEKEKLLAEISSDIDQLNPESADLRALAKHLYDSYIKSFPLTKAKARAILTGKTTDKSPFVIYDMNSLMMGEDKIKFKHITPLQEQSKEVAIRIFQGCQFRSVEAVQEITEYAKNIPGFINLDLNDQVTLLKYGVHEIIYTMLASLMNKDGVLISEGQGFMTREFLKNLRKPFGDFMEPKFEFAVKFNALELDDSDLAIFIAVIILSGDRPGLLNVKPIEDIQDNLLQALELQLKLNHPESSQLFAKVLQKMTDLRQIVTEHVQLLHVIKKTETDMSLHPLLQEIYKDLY

[24] = molecular target: T2, Peroxisome proliferator-activated receptor gamma (Mus musculus); experiment: Inverse agonist activity at PPARgamma in NMRI-nu/nu mouse assessed as reduction in Fabp4 mRNA expression in adipose tissue at 50 mg/kg for 3 days and measured 6 hrs last dose by qPCR analysis; format: organism-based; details: time 3.0 day
[25] = molecular target: T2, Peroxisome proliferator-activated receptor gamma (Mus musculus); experiment: Inverse agonist activity at PPARgamma in NMRI-nu/nu mouse assessed as fold reduction in Fabp4 mRNA expression in adipose tissue at 50 mg/kg for 3 days and measured 15 hrs last dose by qPCR analysis; format: organism-based; details: filed as inverse agonist, time 3.0 day
[26] = molecular target: T2, Peroxisome proliferator-activated receptor gamma (Mus musculus); experiment: Inverse agonist activity at PPARgamma in NMRI-nu/nu mouse assessed as decrease in Acaab1 mRNA expression in adipose tissue at 50 mg/kg for 3 days and measured upto 15 hrs last dose by qPCR analysis; format: organism-based; details: filed as inverse agonist, time 3.0 day
[27] = molecular target: T3, Peroxisome proliferator-activated receptor alpha (Homo sapiens, UniProt Q07869); experiment: Agonist activity at human PPARalpha expressed in CHO cells co-expressing GAL4-NHR-LBD assessed as transcriptional activation preincubated for 6 hrs followed by luciferin addition by luminescence method; format: cell-based
T3 sequence (Q07869 whole entry): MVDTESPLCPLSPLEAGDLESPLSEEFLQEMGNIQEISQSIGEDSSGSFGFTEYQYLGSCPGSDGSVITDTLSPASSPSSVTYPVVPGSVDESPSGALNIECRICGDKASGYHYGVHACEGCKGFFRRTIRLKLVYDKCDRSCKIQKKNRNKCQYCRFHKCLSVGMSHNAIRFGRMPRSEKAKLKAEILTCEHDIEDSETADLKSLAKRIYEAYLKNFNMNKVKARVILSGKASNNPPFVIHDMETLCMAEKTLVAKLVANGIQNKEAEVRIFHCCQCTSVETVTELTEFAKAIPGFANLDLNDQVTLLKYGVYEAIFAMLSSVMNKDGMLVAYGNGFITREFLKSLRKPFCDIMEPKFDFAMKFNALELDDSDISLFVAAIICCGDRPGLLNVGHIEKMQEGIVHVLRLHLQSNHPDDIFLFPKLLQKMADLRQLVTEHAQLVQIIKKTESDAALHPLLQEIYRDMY

[28] = molecular target: T4, Peroxisome proliferator-activated receptor alpha (Homo sapiens) (UniProt Q07869); experiment: Agonist activity at human PPARalpha expressed in CHO cells co-expressing GAL4-NHR-LBD assessed as transcriptional activation by measuring maximum efficacy preincubated for 6 hrs followed by luciferin addition by luminescence method; format: cell-based; details: filed as agonist
T4 sequence (whole entry): T3 sequence (Q07869 whole entry)

[29] = molecular target: T5, Peroxisome proliferator-activated receptor delta (Homo sapiens, UniProt Q03181); experiment: Inverse agonist activity at human PPARdelta expressed in CHO cells co-expressing GAL4-NHR-LBD assessed as transcriptional repression preincubated for 6 hrs followed by luciferin addition by luminescence method; format: cell-based
T5 sequence (Q03181 whole entry): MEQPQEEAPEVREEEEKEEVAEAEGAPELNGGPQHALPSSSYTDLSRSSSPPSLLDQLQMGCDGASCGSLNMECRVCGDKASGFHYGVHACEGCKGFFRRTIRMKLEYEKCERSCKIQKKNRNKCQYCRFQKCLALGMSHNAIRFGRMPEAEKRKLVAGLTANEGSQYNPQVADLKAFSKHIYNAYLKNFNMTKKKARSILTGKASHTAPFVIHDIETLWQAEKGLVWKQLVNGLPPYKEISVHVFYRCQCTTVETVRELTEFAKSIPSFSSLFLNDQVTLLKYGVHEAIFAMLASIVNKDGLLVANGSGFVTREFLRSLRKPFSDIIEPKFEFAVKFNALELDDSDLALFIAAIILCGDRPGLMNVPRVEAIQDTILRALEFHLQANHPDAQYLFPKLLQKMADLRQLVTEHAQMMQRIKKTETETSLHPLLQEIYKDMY

Cc1cc(OC(F)F)ccc1NC(=O)c1cc(C(=O)NCc2ccc(F)cc2)c(F)cc1Cl
IC50 [1]: 0.0194 µM
Emax [2]: 55%
CLint scaled at 1 µM [3]: 12.7 mL/min/kg
CLint scaled at 1 µM [4]: 28.8 mL/min/kg
remaining at 1 h, 10000 µM [5]: 74.8%
remaining at 2 h, 10000 µM [6]: 56.4%
remaining at 4 h, 10000 µM [7]: 46.5%
remaining at 24 h, 10000 µM [8]: 32%
remaining at 1 h, 10000 µM [9]: 93%
remaining at 2 h, 10000 µM [10]: 77.8%
remaining at 4 h, 10000 µM [11]: 71%
remaining at 24 h, 10000 µM [12]: 51.6%
Papp B→A at 2 h, 2 µM [13]: 23.8 ×10⁻⁶ cm/s
solubility thermodynamic [14]: 0.1 µg/mL (≈ 0.208 µM)
IC50 [15]: 14.7 µM
AUClast [16]: 1.6 kg·h/L
clearance [17]: 10.3 mL/min/kg
Vd [18]: 2.7 L/kg
half-life [19]: 4.8 h
AUC(0-t) at 24 h [20]: 12000 ng·h/mL
Cmax [21]: 2100 nM
Tmax [22]: 7 h
Activity [23]: inactive
Activity [24]: inactive
Activity [25]: Active
Activity [26]: Active

O=C(Nc1ccncc1)c1cc([N+](=O)[O-])ccc1Cl
IC50 [27]: 2.95 µM
Emax [28]: 289%
IC50 [29]: > 5 µM

Cc1cc(N2CCOCC2)cnc1NC(=O)c1cc(C(=O)NCc2ccc(F)c(F)c2)c(F)cc1Cl
IC50 [1]: 0.0983 µM
Emax [2]: 99%
CLint scaled at 1 µM [3]: 14.7 mL/min/kg
CLint scaled at 1 µM [4]: 42.5 mL/min/kg
remaining at 1 h, 10000 µM [5]: 100%
remaining at 2 h, 10000 µM [6]: 100%
remaining at 4 h, 10000 µM [7]: 100%
remaining at 24 h, 10000 µM [8]: 100%
remaining at 1 h, 10000 µM [9]: 100%
remaining at 2 h, 10000 µM [10]: 100%
remaining at 4 h, 10000 µM [11]: 100%
remaining at 24 h, 10000 µM [12]: 100%
Papp B→A at 2 h, 2 µM [13]: 10.9 ×10⁻⁶ cm/s
solubility thermodynamic [14]: 1.6 µg/mL (≈ 3.08 µM)
IC50 [15]: > 49.8 µM
AUClast [16]: 0.35 kg·h/L
clearance [17]: 46.7 mL/min/kg
Vd [18]: 0.84 L/kg
half-life [19]: 0.21 h
AUC(0-t) at 24 h [20]: 520 ng·h/mL
Cmax [21]: 73 nM
Tmax [22]: 7 h
Activity [23]: inactive
